Molecules are shown by their SMILES. pEC50, pIC50: −log10 of the molar value.

One test has as its system PC-3 cells. Put plainly: Inhibition of proliferation: CyQuant PC-3. It is filed as cell-based. The following applies: 72 h; PC-3 human prostate carcinoma cells, incubated with compounds for 3 days, CyQuant NF DNA dye. As to the method: • GFP-4E-BP1 substrate; Invitrogen order no. PV4759 • Lanthascreen Tb-anti-p4E-BP1 (pThr46) Antibody Kit; Invitrogen order no. PV4758 • FRAP1 (mTOR) kinase; Invitrogen order no. […] Preparation of Reagents: Note: Thaw and keep mTOR, the substrate, ATP, and the antibody on ice prior to making working dilutions. Working dilutions of these components can be kept at room temperature for short periods of time the day of use. 1. Add 2 ml of 5× Assay Buffer to 8 ml water to prepare 10 ml of 1× Assay Buffer. Note: The concentration of 1× Assay Buffer is 50 mM HEPES pH 7.5, 0.01% Polysorbate 20, 1 mM EGTA, and 10 mM MnCl2. 2. Prepare Antibody/EDTA Solution by first adding 2.75 n1 of Tb-anti p4E-BP1 Antibody to 2397 n1 of LanthaScreen™ TR-FRET Dilution Buffer. Then, add 100 n1 of 0.5 M EDTA. 3. Prepare 4× Substrate/Enzyme Solution by first adding 72 n1 of GFP-4E-BP1 (22 nM) to 926 n1 of 1× Assay Buffer. Then, add 1.6 n1 of mTOR (0.45 mg/mL). 4. Prepare ATP Solution by adding 3.2 n1 of 10 mM ATP to 1997 n1 of 1× Assay Buffer. Serial Dilution of Inhibitors (16 Point Curve): Note: It is recommended that inhibitors be serially diluted in DMSO, then diluted to a 4× working concentration with 1× Assay Buffer. The below procedure describes dilution of compounds in a 96-well format prior to transfer to a 384-well format for kinase assays. This procedure calls for dilution of the compounds in 2 adjacent columns of a 96-well plate, which upon transfer to a single column of a 384-well plate with an 8-channel pipette will align the samples in order of concentration. 1. Dispense 40 n1 of DMSO to two adjacent columns of a 96 well plate per compound (e.g. columns 1 and 2). 2. Add 10 n1 of inhibitor stock (10 mM) to the first well of the first column (A1) and mix. 3. Remove 10 n1 from A1 and transfer to the adjacent well in the next column (B1) and mix. 4. Remove 10 n1 from B1 and transfer to the next well in the first column (B2) and mix. 5. Repeat this dilution pattern through well H1 and leave the last well (H2) as DMSO only. 6. Remove 4 n1 of diluted compounds and add to 96 n1 of 1× Assay Buffer in a 96-well plate making 4× compound dilutions. Kinase Reaction: 1. Add 2.5 μl of 4× compound dilutions from the first column of the 96-well plate to every other well of column 1 of a 384-well plate with an 8-channel pipette. Repeat for columns 2 and 3. 2. Add 2.5 n1 of 4× compound dilutions from the second column of the 96-well plate to the empty wells of column 1 of the 384-well plate with an 8-channel pipette. Repeat for columns 2 and 3. Note: This procedure aligns the compound dilutions in order of concentration. 3. Add 2.5 n1 of 4× Enzyme/Substrate Solution to all columns 1-6. 4. Preincubate for 30 min. at RT (shaker). 5. Add 5 n1 of ATP Solution to all wells to start reactions. 6. Shake the assay plate on a plate shaker for 30 seconds. 7. Incubate the assay plate for one hour at room temperature (20-25° C.). Stop Step and Fluorescence Detection: 1. Add 10 n1 of Antibody/EDTA Solution to each well in columns 1-9. 2. Shake the assay plate on a plate shaker for 30 seconds. 3. Incubate the assay plate for one hour at room temperature (20-25° C.). 4. Measure the GFP (FRET) and terbium (reference) emission signals on a fluorescence plate reader (e.g. Perkin Elmer Envision). Data Analysis: 1. Calculate the emission ratio for each sample by dividing the GFP (FRET) signal by the terbium (reference) signal. 2. Plot the concentration of each compound versus the emission ratio. Determine the concentration of compound required to reach 50% of the maximum signal (IC50). Determination of IC50 values can be obtained by curve fitting (sigmoidal dose response, variable slope) using Prism software from GraphPad). Inhibition of Proliferation: CyQuant PC-3 Description:
The CyQuant NF assay is based on measurement of cellular DNA content via fluorescent dye binding. Because cellular DNA content is highly regulated, it is closely proportional to cell number. […]

A further test deals with T1, FRAP1 (mTOR) kinase (Homo sapiens, UniProt P42345).
T1 construct: purchased Invitrogen PV4753
Put plainly: Inhibition of mTOR-induced p-4E-BP1 phosphorylation (TR-FRET mTOR Activity Kit; Invitrogen). It is filed as biochemical. The following applies: 400 nM GFP-4E-BP1 substrate, ~150 ng/mL mTOR, one hour at room temperature. An outline of the steps: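 LanthaScreen TR-FRET: mTOR with GFP-4E-BP1 substrate in HEPES pH 7.5 buffer with 10 mM MnCl2, compound preincubated 30 min at RT, then ATP added and reacted 1 h at 20-25 °C. Stopped with EDTA plus Tb-anti-p4E-BP1 (pThr46), 1 h; GFP/Tb emission ratio over a 16-point curve, sigmoidal fit for IC50.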
Background: In TR-FRET formats the signal depends on donor and acceptor labels being close together.

T1 sequence (P42345 1360-2549 limits assumed): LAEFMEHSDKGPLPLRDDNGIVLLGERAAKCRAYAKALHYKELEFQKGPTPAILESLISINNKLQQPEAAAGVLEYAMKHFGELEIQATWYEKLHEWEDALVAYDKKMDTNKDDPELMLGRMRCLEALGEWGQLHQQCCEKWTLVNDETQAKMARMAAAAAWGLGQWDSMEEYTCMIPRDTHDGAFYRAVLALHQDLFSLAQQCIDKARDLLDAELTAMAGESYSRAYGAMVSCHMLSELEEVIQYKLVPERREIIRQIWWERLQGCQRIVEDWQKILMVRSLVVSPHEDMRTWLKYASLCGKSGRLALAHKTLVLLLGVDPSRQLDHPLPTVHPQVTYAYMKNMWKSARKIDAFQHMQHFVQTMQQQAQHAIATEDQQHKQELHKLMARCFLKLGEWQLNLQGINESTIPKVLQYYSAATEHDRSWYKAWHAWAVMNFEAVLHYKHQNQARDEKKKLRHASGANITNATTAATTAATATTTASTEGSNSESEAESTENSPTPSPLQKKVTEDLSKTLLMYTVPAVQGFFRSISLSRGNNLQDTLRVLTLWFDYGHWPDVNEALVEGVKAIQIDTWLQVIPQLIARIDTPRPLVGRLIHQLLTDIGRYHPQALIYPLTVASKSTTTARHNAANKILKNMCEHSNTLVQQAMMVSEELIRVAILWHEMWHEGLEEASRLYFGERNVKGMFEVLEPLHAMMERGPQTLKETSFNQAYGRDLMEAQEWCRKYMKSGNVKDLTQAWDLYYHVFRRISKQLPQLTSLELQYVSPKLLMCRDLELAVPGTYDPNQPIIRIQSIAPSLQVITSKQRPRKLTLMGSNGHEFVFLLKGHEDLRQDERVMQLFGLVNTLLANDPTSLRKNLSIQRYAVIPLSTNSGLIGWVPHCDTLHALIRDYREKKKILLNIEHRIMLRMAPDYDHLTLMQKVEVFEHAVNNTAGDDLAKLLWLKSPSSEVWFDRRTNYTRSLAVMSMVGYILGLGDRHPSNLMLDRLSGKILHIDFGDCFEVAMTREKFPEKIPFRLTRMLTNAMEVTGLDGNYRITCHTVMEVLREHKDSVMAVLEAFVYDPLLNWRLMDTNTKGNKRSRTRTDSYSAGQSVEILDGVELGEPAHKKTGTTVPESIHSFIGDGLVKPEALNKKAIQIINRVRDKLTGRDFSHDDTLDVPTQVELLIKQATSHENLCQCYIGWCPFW

As for `CNc1ccc(-c2nn(-c3ccccc3Cl)c3c2CCCc2nc(NC(=O)N(C)C)sc2-3)cn1` [Example B-45], the pEC50 (in general, −log10 of the EC50, conventionally taken in molar units) in the test on PC-3 cells was 6.43. Further, the pIC50 (in general, −log10 of the IC50, conventionally taken in molar units) against FRAP1 (mTOR) kinase was 6.11.

`CNc1ccc(-c2nn(-c3ccccc3C)c3c2CCCc2nc(NC(=O)N(C)C)sc2-3)cn1` [Example B-46]: the negative-log EC50 (pEC50) in the test on PC-3 cells is 6.35. The compound also gave a pIC50 against FRAP1 (mTOR) kinase of 5.92.

Turning to `C=CCn1nc(-c2ccc(NC)nc2)c2c1-c1sc(NC(=O)N(C)C)nc1CCC2` [Example B-47], in the test with PC-3 cells, the pEC50 was 6.15. At FRAP1 (mTOR) kinase, the negative logarithm of the IC50 (pIC50) was 6.13.

For the compound `CCn1nc(-c2ccc(NC)nc2)c2c1-c1sc(NC(=O)N(C)C)nc1CCC2` [Example B-48], the pEC50 in the test with PC-3 cells is 6.15. Besides, the negative logarithm of the IC50 (pIC50) on FRAP1 (mTOR) kinase is 6.35.

As to `CN(C)C(=O)Nc1nc2c(s1)-c1c(c(-c3ccc(N)nc3)nn1C1CCN(C3CC3)CC1)CCC2` [Example B-49, 3-[3-(6-Amino-pyridin-3-yl)-1-(1-cyclopropyl-piperidin-4-yl)-1,4,5,6-tetrahydro-9-thia-1,2,7-triaza-cyclopenta[e]azulen-8-yl]-1,1-dimethyl-urea], the pEC50 in the test on PC-3 cells was 6.81. On FRAP1 (mTOR) kinase, the pIC50 is 7.39.

`CNc1ccc(-c2nn(-c3ccccc3C)c3c2CCCc2nc(NC(=O)OC)sc2-3)cn1` [Example B-50, [3-(6-Methylamino-pyridin-3-yl)-1-o-tolyl-1,4,5,6-tetrahydro-9-thia-1,2,7-triaza-cyclopenta[e]azulen-8-yl]-carbamic acid methyl ester]: the pEC50 with PC-3 cells is 6.68. This compound showed a pIC50 against FRAP1 (mTOR) kinase of 7.52.

As to `COCCn1nc(-c2ccc(N)nc2)c2c1-c1sc(NC(=O)N(C)C)nc1CCC2` [Example B-51], in the test on PC-3 cells, the pEC50 was 6.28. This compound showed a negative logarithm of the IC50 (pIC50) on FRAP1 (mTOR) kinase of 6.73.

With `C=CCn1nc(-c2ccc(N)nc2)c2c1-c1sc(NC(=O)N(C)C)nc1CCC2` [Example B-52], the pEC50 with PC-3 cells is 6.49. At FRAP1 (mTOR) kinase, this compound showed a negative-log IC50 (pIC50) of 6.84.

For the compound `CN(C)C(=O)Nc1nc2c(s1)-c1c(c(-c3ccc(N)nc3)nn1-c1ccccc1Cl)CCC2` [Example B-54], the pEC50 with PC-3 cells is 6.41. Further, the negative logarithm of the IC50 (pIC50) against FRAP1 (mTOR) kinase was 6.24.

Take `Cc1ccccc1-n1nc(-c2ccc(N)nc2)c2c1-c1sc(NC(=O)N(C)C)nc1CCC2` [Example B-55]: the negative-log EC50 (pEC50) in the test on PC-3 cells was 6.35. At FRAP1 (mTOR) kinase, the pIC50 is 6.77.

Regarding `CNc1ccc(-c2nn(C3CCN(C)CC3)c3c2CCCc2nc(NC(=O)N(C)C)sc2-3)cn1` [Example B-56], the negative logarithm of the EC50 (pEC50) in the test with PC-3 cells is 6.24. At FRAP1 (mTOR) kinase, this compound gave a pIC50 of 6.42.

For `CNc1ccc(-c2nn(C3CCN(C4CC4)CC3)c3c2CCCc2nc(NC(=O)N(C)C)sc2-3)cn1` [Example B-57], the negative logarithm of the EC50 (pEC50) in the test with PC-3 cells is 6.83. In addition, at FRAP1 (mTOR) kinase, the negative-log IC50 (pIC50) is 7.15.

With `CCNc1ccc(-c2nn(C3CCCOC3)c3c2CCCc2nc(NC(C)=O)sc2-3)cn1` (stereo not drawn) [Example B-60], the negative-log EC50 (pEC50) in the test with PC-3 cells is 6.77. In addition, on FRAP1 (mTOR) kinase, the pIC50 is 6.96.

For the compound `CC(=O)Nc1nc2c(s1)-c1c(c(-c3ccc(N)nc3)nn1-c1ccccc1C)CCC2` [Example B-61, N-[3-(6-Amino-pyridin-3-yl)-1-o-tolyl-1,4,5,6-tetrahydro-9-thia-1,2,7-triaza-cyclopenta[e]azulen-8-yl]-acetamide], the pEC50 in the test with PC-3 cells is 7.16. Moreover, the negative-log IC50 (pIC50) against FRAP1 (mTOR) kinase was 7.82.

As for `CC(=O)Nc1nc2c(s1)-c1c(c(-c3ccc(N)nc3)nn1-c1ccccc1F)CCC2` [Example B-62, N-[3-(6-Amino-pyridin-3-yl)-1-(2-fluoro-phenyl)-1,4,5,6-tetrahydro-9-thia-1,2,7-triaza-cyclopenta[e]azulen-8-yl]-acetamide], the pEC50 in the test with PC-3 cells was 7.33. This compound also gave a negative logarithm of the IC50 (pIC50) at FRAP1 (mTOR) kinase of 8.00.

With `CC(=O)Nc1nc2c(s1)-c1c(c(-c3ccc(N)nc3)nn1-c1ccccc1Br)CCC2` [Example B-63, N-[3-(6-Amino-pyridin-3-yl)-1-(2-bromo-phenyl)-1,4,5,6-tetrahydro-9-thia-1,2,7-triaza-cyclopenta[e]azulen-8-yl]-acetamide], in the test on PC-3 cells, the negative logarithm of the EC50 (pEC50) was 6.84. Also, the pIC50 against FRAP1 (mTOR) kinase was 7.57.

Regarding `CC(=O)Nc1nc2c(s1)-c1c(c(-c3ccc(N)nc3)nn1-c1ccccc1Cl)CCC2` [Example B-64, N-[3-(6-Amino-pyridin-3-yl)-1-(2-chloro-phenyl)-1,4,5,6-tetrahydro-9-thia-1,2,7-triaza-cyclopenta[e]azulen-8-yl]-acetamide], in the test on PC-3 cells, the negative logarithm of the EC50 (pEC50) was 7.09. On FRAP1 (mTOR) kinase, this compound showed a negative-log IC50 (pIC50) of 8.05.

Regarding `CC(=O)Nc1nc2c(s1)-c1c(c(-c3ccc(N)nc3)nn1C1CCCOC1)CCC2` (stereo not drawn) [Example B-65, N-[3-(6-Amino-pyridin-3-yl)-1-(tetrahydro-pyran-3-yl)-1,4,5,6-tetrahydro-9-thia-1,2,7-triaza-cyclopenta[e]azulen-8-yl]-acetamide], the pEC50 in the test on PC-3 cells was 7.12. Also, the pIC50 against FRAP1 (mTOR) kinase was 7.89.

As for `CC(=O)Nc1nc2c(s1)-c1c(c(-c3ccc(N)nc3)nn1C(C)C)CCC2` [Example B-66, N-[3-(6-Amino-pyridin-3-yl)-1-isopropyl-1,4,5,6-tetrahydro-9-thia-1,2,7-triaza-cyclopenta[e]azulen-8-yl]-acetamide], in the test with PC-3 cells, the negative-log EC50 (pEC50) is 7.05. The compound further had a negative-log IC50 (pIC50) at FRAP1 (mTOR) kinase of 7.92.

With `CCNc1ccc(-c2nn(-c3ccccc3C)c3c2CCCc2nc(NC(=O)NC)sc2-3)cn1` [Example B-68], in the test on PC-3 cells, the pEC50 is 6.22. This compound also had a pIC50 against FRAP1 (mTOR) kinase of 6.78.

`CCNc1ccc(-c2nn(-c3ccccc3C)c3c2CCCc2nc(NC(=O)CNC)sc2-3)cn1` [Example B-69]: the negative logarithm of the EC50 (pEC50) with PC-3 cells was 6.64. At FRAP1 (mTOR) kinase, the pIC50 is 6.84.

Consider `CCNc1ccc(-c2nn(-c3ccccc3C)c3c2CCCc2nc(NC(=O)CCCN(C)C)sc2-3)cn1` [Example B-70], for which the pEC50 with PC-3 cells was 6.55. This compound showed a negative logarithm of the IC50 (pIC50) on FRAP1 (mTOR) kinase of 7.21.

In the case of `CCNc1ccc(-c2nn(-c3ccccc3C)c3c2CCCc2nc(NC(=O)CCOC)sc2-3)cn1` [Example B-71], the negative-log EC50 (pEC50) in the test with PC-3 cells was 6.50. The negative-log IC50 (pIC50) at FRAP1 (mTOR) kinase is 6.86.

As for `CCNc1ccc(-c2nn(-c3ccccc3C)c3c2CCCc2nc(NC(=O)CCc4nccn4C)sc2-3)cn1` [Example B-72], the negative logarithm of the EC50 (pEC50) with PC-3 cells is 6.53. The compound further showed a pIC50 on FRAP1 (mTOR) kinase of 7.08.

In the case of `CCNc1ccc(-c2nn(-c3ccccc3Cl)c3c2CCCc2nc(NC(C)=O)sc2-3)cn1` [Example B-75], the pEC50 with PC-3 cells is 6.95. Also, the pIC50 against FRAP1 (mTOR) kinase is 7.31.

`CCNc1ccc(-c2nn(-c3ccccc3F)c3c2CCCc2nc(NC(C)=O)sc2-3)cn1` [Example B-76, N-[3-(6-Ethylamino-pyridin-3-yl)-1-(2-fluoro-phenyl)-1,4,5,6-tetrahydro-9-thia-1,2,7-triaza-cyclopenta[e]azulen-8-yl]-acetamide]: the pEC50 in the test with PC-3 cells is 7.10. This compound had a pIC50 against FRAP1 (mTOR) kinase of 7.51.

`CCNc1ccc(-c2nn(-c3ccncc3C)c3c2CCCc2nc(NC(C)=O)sc2-3)cn1` [Example B-77, N-[3-(6-Ethylamino-pyridin-3-yl)-1-(3-methyl-pyridin-4-yl)-1,4,5,6-tetrahydro-9-thia-1,2,7-triaza-cyclopenta[e]azulen-8-yl]-acetamide]: the negative logarithm of the EC50 (pEC50) with PC-3 cells was 6.90. Moreover, the pIC50 on FRAP1 (mTOR) kinase was 7.47.

The values above are taken from patent US8288379B2, “Thia-triaza-cyclopentazulenes” (Boehringer Ingelheim International GmbH, priority 2009, dated 2012).
